Results reported in PubChem BioAssay AID330 (DTP/NCI, 2004).
Where “and” joins values, the source holds several entries; their conditions need not be identical. Equal entries are not always repeated. Inconclusive results and toxic doses are left out. Rule for the calls: active = survival T/C of 150% or more; inactive = T/C below 125% in these data.

Test system: P388 leukemia ip, CD2F1 mice, survival T/C
Assay: NCI In Vivo Anticancer Drug Screen. Data for tumor model P388 Leukemia (intraperitoneal) in CD2F1 (CDF1) mice
Settings: endpoint: median survival time, higher = longer survival
Procedure, shortened: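 Mice carrying the transplanted tumor received test compound or vehicle. Survival was recorded in each group, and the value is the treated-group measurement divided by that of the vehicle-treated control group.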

[1] = dose: 60.0 mg/kg/injection, schedule: Q01DX005 (ip), vehicle: saline with Tween-80
[2] = dose: 120.0 mg/kg/injection, schedule: Q01DX005 (ip), vehicle: saline with Tween-80
[3] = dose: 240.0 mg/kg/injection, schedule: Q01DX005 (ip), vehicle: saline with Tween-80
[4] = dose: 50.0 mg/kg/injection, schedule: Q01DX005 (ip), vehicle: Klucel (hydroxypropylcellulose) (HPC)
[5] = dose: 100.0 mg/kg/injection, schedule: Q01DX005 (ip), vehicle: Klucel (hydroxypropylcellulose) (HPC)
[6] = dose: 200.0 mg/kg/injection, schedule: Q01DX005 (ip), vehicle: Klucel (hydroxypropylcellulose) (HPC)
[7] = dose: 6.25 mg/kg/injection, schedule: Q01DX009 (ip), vehicle: saline
[8] = dose: 12.5 mg/kg/injection, schedule: Q01DX009 (ip), vehicle: saline
[9] = dose: 25.0 mg/kg/injection, schedule: Q01DX009 (ip), vehicle: saline

Measured: T/C

CC(C)CC(NC(=O)C(Cc1ccccc1)NC(=O)CNC(=O)CNC(=O)C(N)Cc1ccc(O)cc1)C(N)=O (stereo unspecified)
inactive: dose: 8.75 mg/kg/injection, schedule: Q01DX005 (ip), vehicle: saline 108 % of control | dose: 17.5 mg/kg/injection, schedule: Q01DX005 (ip), vehicle: saline 110 % of control | dose: 35.0 mg/kg/injection, schedule: Q01DX005 (ip), vehicle: saline 104 % of control | dose: 70.0 mg/kg/injection, schedule: Q01DX005 (ip), vehicle: saline 112 % of control | dose: 140.0 mg/kg/injection, schedule: Q01DX005 (ip), vehicle: saline 108 % of control

Cc1ccccc1C[P+](c1ccccc1)(c1ccccc1)c1ccccc1
inactive: dose: 0.62 mg/kg/injection, schedule: Q01DX009 (ip), vehicle: saline with Tween-80 95 % of control | dose: 1.25 mg/kg/injection, schedule: Q01DX009 (ip), vehicle: saline with Tween-80 100 % of control | dose: 2.5 mg/kg/injection, schedule: Q01DX009 (ip), vehicle: saline with Tween-80 104 % of control | dose: 5.0 mg/kg/injection, schedule: Q01DX009 (ip), vehicle: saline with Tween-80 117 % of control | dose: 5.0 mg/kg/injection, schedule: Q04DX003 (ip), vehicle: saline with Tween-80 100 % of control | dose: 10.0 mg/kg/injection, schedule: Q01DX009 (ip), vehicle: saline with Tween-80 95 % of control | dose: 10.0 mg/kg/injection, schedule: Q04DX003 (ip), vehicle: saline with Tween-80 87 % of control

Nc1ncnc2c1ncn2CC1OC(O)C(O)C1NC(=O)C(N)Cc1ccccc1 (stereo unspecified)
inactive: dose: 8.0 mg/kg/injection, schedule: Q01DX005 (ip), vehicle: saline 94 % of control | dose: 16.0 mg/kg/injection, schedule: Q01DX005 (ip), vehicle: saline 106 % of control | dose: 32.0 mg/kg/injection, schedule: Q01DX005 (ip), vehicle: saline 94 % of control | dose: 64.0 mg/kg/injection, schedule: Q01DX005 (ip), vehicle: saline 101 % of control | dose: 128.0 mg/kg/injection, schedule: Q01DX005 (ip), vehicle: saline 94 % of control | dose: 256.0 mg/kg/injection, schedule: Q01DX005 (ip), vehicle: saline 97 % of control

COC(=O)Nc1cn2c(n1)SCC2
inactive: [1] 98 % of control | [2] 95 % of control | [3] 100 % of control

Cn1c(=O)c2c(nc(Br)n2CC(=O)c2ccc([N+](=O)[O-])cc2)n(C)c1=O
inactive: dose: 100.0 mg/kg/injection, schedule: Q04DX003 (ip), vehicle: saline 95 % of control | dose: 200.0 mg/kg/injection, schedule: Q04DX003 (ip), vehicle: saline 96 % of control | dose: 400.0 mg/kg/injection, schedule: Q04DX003 (ip), vehicle: saline 99 % of control

CCOC(=O)C1CCc2c(OC)c(C)cc(C)c2C1=O (stereo unspecified)
inactive: [4] 103 % of control | [5] 103 % of control | [6] 95 % of control

NC(N)=NS(=O)(=O)c1ccc(N=c2c3ccccc3n(Cc3ccccc3)c3ccccc23)cc1
inactive: dose: 50.0 mg/kg/injection, schedule: Q01DX005 (ip), vehicle: saline with Tween-80 97 % of control | dose: 100.0 mg/kg/injection, schedule: Q01DX005 (ip), vehicle: saline with Tween-80 98 % of control

O=C(c1ccccc1)C(c1ccccc1)n1nccc1-c1ccccc1 (stereo unspecified)
inactive: dose: 50.0 mg/kg/injection, schedule: Q01DX009 (ip), vehicle: Klucel (hydroxypropylcellulose) (HPC) 105 % of control | dose: 100.0 mg/kg/injection, schedule: Q01DX009 (ip), vehicle: Klucel (hydroxypropylcellulose) (HPC) 105 % of control | dose: 200.0 mg/kg/injection, schedule: Q01DX009 (ip), vehicle: Klucel (hydroxypropylcellulose) (HPC) 99 % of control

Cc1cc(=O)c(C(=O)NC(=O)c2ccccn2)c(C)o1
inactive: [4] 101 % of control | [5] 101 % of control | [6] 107 % of control

CCCCCCOc1ccc(OCCCC[N+]2(CC)CCCCC2)cc1
inactive: dose: 1.56 mg/kg/injection, schedule: Q01DX009 (ip), vehicle: saline 105 % of control | dose: 3.12 mg/kg/injection, schedule: Q01DX009 (ip), vehicle: saline 106 % of control | [7] 104 % of control

COc1ncnc(Sc2ncccn2)c1[N+](=O)[O-]
inactive: [8] 103 % of control and 89 % of control | [9] 103 % of control and 105 % of control | dose: 50.0 mg/kg/injection, schedule: Q01DX009 (ip), vehicle: saline 102 % of control and 104 % of control and 90 % of control | dose: 100.0 mg/kg/injection, schedule: Q01DX009 (ip), vehicle: saline 100 % of control and 123 % of control and 89 % of control | dose: 200.0 mg/kg/injection, schedule: Q01DX009 (ip), vehicle: saline 109 % of control

CCC1=NO[C@@H](C)[C@H]1C(=O)OCc1ccccc1
inactive: [1] 106 % of control | [2] 100 % of control | [3] 97 % of control

CNc1ccc(O)cc1
inactive: dose: 5.0 mg/kg/injection, schedule: Q01DX009 (ip), vehicle: saline sonified 100 % of control | dose: 10.0 mg/kg/injection, schedule: Q01DX009 (ip), vehicle: saline sonified 104 % of control | dose: 20.0 mg/kg/injection, schedule: Q01DX009 (ip), vehicle: saline sonified 100 % of control

CCn1c2ccc(C(=O)CCCN3CCCCC3)cc2c2cc(C(=O)CCCN3CCCCC3)ccc21
inactive: [7] 100 % of control | [8] 103 % of control and 113 % of control and 97 % of control | [9] 102 % of control and 121 % of control and 122 % of control

CCCCCCCCCCCCCOC(=O)c1ccc(O)cc1
inactive: dose: 50.0 mg/kg/injection, schedule: Q01DX009 (ip), vehicle: saline with Tween-80 98 % of control | dose: 100.0 mg/kg/injection, schedule: Q01DX009 (ip), vehicle: saline with Tween-80 94 % of control | dose: 200.0 mg/kg/injection, schedule: Q01DX009 (ip), vehicle: saline with Tween-80 88 % of control

NS(=O)(=O)c1ccc(N=Cc2cnc3ccccc3n2)cc1
inactive: dose: 5.0 mg/kg/injection, schedule: Q01DX009 (ip), vehicle: saline 97 % of control | dose: 10.0 mg/kg/injection, schedule: Q01DX009 (ip), vehicle: saline 101 % of control | dose: 20.0 mg/kg/injection, schedule: Q01DX009 (ip), vehicle: saline 97 % of control

C[Si](OC(=O)N(CCCl)CCCl)(c1ccccc1)c1ccccc1
inactive: dose: 3.12 mg/kg/injection, schedule: Q01DX009 (ip), vehicle: Klucel (hydroxypropylcellulose) (HPC) 103 % of control | dose: 6.25 mg/kg/injection, schedule: Q01DX009 (ip), vehicle: Klucel (hydroxypropylcellulose) (HPC) 106 % of control | dose: 12.5 mg/kg/injection, schedule: Q01DX009 (ip), vehicle: Klucel (hydroxypropylcellulose) (HPC) 113 % of control

Fc1ccccc1N=Cc1ccc(C=Nc2ccccc2F)cc1
inactive: dose: 15.0 mg/kg/injection, schedule: Q01DX005 (ip), vehicle: Klucel (hydroxypropylcellulose) (HPC) 100 % of control | dose: 30.0 mg/kg/injection, schedule: Q01DX005 (ip), vehicle: Klucel (hydroxypropylcellulose) (HPC) 92 % of control | dose: 60.0 mg/kg/injection, schedule: Q01DX005 (ip), vehicle: Klucel (hydroxypropylcellulose) (HPC) 95 % of control

CCC[As](CCC)SC1CC(OC(=O)c2ccccc2)C(OC(=O)c2ccccc2)C(COC(=O)c2ccccc2)O1 (stereo unspecified)
inactive: dose: 50.0 mg/kg/injection, schedule: Q01DX009 (ip), vehicle: saline + alcohol 100 % of control | dose: 100.0 mg/kg/injection, schedule: Q01DX009 (ip), vehicle: saline + alcohol 102 % of control | dose: 200.0 mg/kg/injection, schedule: Q01DX009 (ip), vehicle: saline + alcohol 102 % of control

O=C1CCC(Cc2ccc(Cl)cc2Cl)C(=O)N1 (stereo unspecified)
inactive: [1] 96 % of control | [2] 94 % of control | [3] 87 % of control

O=c1ccn(C2OC(COC(c3ccccc3)(c3ccccc3)c3ccccc3)C(OC(c3ccccc3)(c3ccccc3)c3ccccc3)C2O)c(=O)[nH]1 (stereo unspecified)
inactive: dose: 25.0 mg/kg/injection, schedule: Q01DX005 (ip), vehicle: Klucel (hydroxypropylcellulose) (HPC) 99 % of control | [4] 95 % of control | [5] 105 % of control | [6] 97 % of control

CNC(=O)OCc1c(COC(=O)NC)c(-c2ccc(C(F)(F)F)cc2)n(C)c1C
inactive: dose: 3.13 mg/kg/injection, schedule: Q01DX009 (ip), vehicle: distilled water + Tween-80 123 % of control | dose: 50.0 mg/kg/injection, schedule: Q01DX009 (ip), vehicle: distilled water + Tween-80 115 % of control
